Results: ChEMBL document CHEMBL5543109, “Novel β-Hairpin Antimicrobial Peptide Containing the β-Turn Sequence of -NG- and the Tryptophan Zippers Facilitate Self-Assembly into Nanofibers, Exhibiting Excellent Antimicrobial Performance” (J Med Chem, 2024)
The source made the active and inactive calls. No cut-off for these calls is given here.

What was measured:
[1] = test system: Erythrocyte; assay: Hemolytic activity in mouse erythrocytes assessed as concentration required to cause 10% hemolysis incubated for 1 hr; type: toxicity, cell-based
[2] = Acute toxicity in ip dosed mouse by karber method; type: organism-based; details: in vivo, ip
[3] = Acute toxicity in mouse assessed as mortality rate at 21 mg/kg, ip by karber method; type: organism-based; details: in vivo
[4] = Acute toxicity in mouse assessed as mortality rate at 25 mg/kg, ip by karber method; type: organism-based; details: in vivo
[5] = Acute toxicity in mouse assessed as mortality rate at 30 mg/kg, ip by karber method; type: organism-based; details: in vivo
[6] = Acute toxicity in mouse assessed as alveolar cavity wrinkling at 25.8 mg/kg, ip by H and E staining based assay; type: organism-based; details: in vivo
[7] = Acute toxicity in mouse assessed as inflammatory cell infiltration at 25.8 mg/kg, ip by H and E staining based assay; type: organism-based; details: in vivo
[8] = Acute toxicity in mouse assessed as lung cell necrosis at 25.8 mg/kg, ip by H and E staining based assay; type: organism-based; details: in vivo
[9] = Acute toxicity in mouse assessed as hepatocyte necrosis at 25.8 mg/kg, ip by H and E staining based assay; type: organism-based; details: hepatocytes
[10] = Acute toxicity in mouse assessed as cellular atrophy at 25.8 mg/kg, ip by H and E staining based assay; type: organism-based; details: in vivo
[11] = Acute toxicity in mouse assessed as renal cell necrosis at 25.8 mg/kg, ip by H and E staining based assay; type: organism-based; details: in vivo
[12] = Acute toxicity in mouse assessed as tissue hemorrhage at 25.8 mg/kg, ip by H and E staining based assay; type: organism-based; details: in vivo
[13] = test system: Staphylococcus aureus; assay: Antibacterial activity against Staphylococcus aureus ATCC 25923 incubated for 18 hrs by broth microdilution method; type: functional
[14] = test system: Bacillus subtilis; assay: Antibacterial activity against Bacillus subtilis ATCC 23857 incubated for 18 hrs by broth microdilution method; type: functional
[15] = test system: Staphylococcus epidermidis; assay: Antibacterial activity against Staphylococcus epidermidis ATCC 12228 incubated for 18 hrs by broth microdilution method; type: functional
[16] = test system: Klebsiella pneumoniae; assay: Antibacterial activity against Klebsiella pneumoniae ATCC 700603 incubated for 18 hrs by broth microdilution method; type: functional
[17] = test system: Escherichia coli; assay: Antibacterial activity against Escherichia coli ATCC 25922 incubated for 18 hrs by broth microdilution method; type: functional
[18] = test system: Pseudomonas aeruginosa; assay: Antibacterial activity against Pseudomonas aeruginosa ATCC 27853 incubated for 18 hrs by broth microdilution method; type: functional
[19] = test system: Staphylococcus aureus; assay: Bactericidal activity against Staphylococcus aureus ATCC 25923 incubated for 18 hrs by broth microdilution method; type: functional
[20] = test system: Bacillus subtilis; assay: Bactericidal activity against Bacillus subtilis ATCC 23857 incubated for 18 hrs by broth microdilution method; type: functional
[21] = test system: Staphylococcus epidermidis; assay: Bactericidal activity against Staphylococcus epidermidis ATCC 12228 incubated for 18 hrs by broth microdilution method; type: functional
[22] = test system: Klebsiella pneumoniae; assay: Bactericidal activity against Klebsiella pneumoniae ATCC 700603 incubated for 18 hrs by broth microdilution method; type: functional
[23] = test system: Escherichia coli; assay: Bactericidal activity against Escherichia coli ATCC 25922 incubated for 18 hrs by broth microdilution method; type: functional
[24] = test system: Pseudomonas aeruginosa; assay: Bactericidal activity against Pseudomonas aeruginosa ATCC 27853 incubated for 18 hrs by broth microdilution method; type: functional
[25] = test system: Escherichia coli; assay: Antibacterial activity against Escherichia coli at 2 times MIC preincubated with 256 ug/ml LPS for 1 hr followed by bacterial addition and measured after 5 hrs; type: functional, organism-based; details: time 6.0 hrs
[26] = test system: Staphylococcus aureus; assay: Induction of morphological change in Staphylococcus aureus assessed as bacterial lysis at 2 times MIC incubated for 30 mins by SEM analysis; type: functional, organism-based
[27] = test system: Staphylococcus aureus; assay: Induction of morphological change in Staphylococcus aureus assessed as bacterial collapse at 2 times MIC incubated for 30 mins by SEM analysis; type: functional, organism-based
[28] = test system: Pseudomonas aeruginosa; assay: Induction of morphological change in Pseudomonas aeruginosa assessed as bacterial lysis at 2 times MIC incubated for 30 mins by SEM analysis; type: functional, organism-based
[29] = test system: Pseudomonas aeruginosa; assay: Induction of morphological change in Pseudomonas aeruginosa assessed as bacterial collapse at 2 times MIC incubated for 30 mins by SEM analysis; type: functional, organism-based
[30] = test system: Staphylococcus aureus; assay: Induction of morphological distortion in Staphylococcus aureus assessed as bacterial collapse at 2 times MIC incubated for 30 mins by SEM analysis; type: functional, organism-based
[31] = test system: Pseudomonas aeruginosa; assay: Induction of morphological distortion in Pseudomonas aeruginosa assessed as bacterial collapse at 2 times MIC incubated for 30 mins by SEM analysis; type: functional, organism-based
[32] = test system: Cell membrane; assay: Induction of cell membrane disruption in Staphylococcus aureus assessed as PI uptake at 2 to 4 times MIC incubated for 2 hrs by PI staining based confocal laser scanning microscopy; type: cell membranes
[33] = test system: Cell membrane; assay: Induction of cell membrane disruption in Escherichia coli assessed as PI uptake at 2 to 4 times MIC incubated for 2 hrs by PI staining based confocal laser scanning microscopy; type: cell membranes
[34] = test system: Cell membrane; assay: Induction of cell membrane disruption in Escherichia coli assessed as PI uptake at 2 times MIC incubated for 2 hrs by PI staining based flow cytometry analysis (reference value: 11.9%); type: cell membranes
[35] = test system: Cell membrane; assay: Induction of cell membrane disruption in Escherichia coli assessed as PI uptake at 4 times MIC incubated for 2 hrs by PI staining based flow cytometry analysis (reference value: 11.9%); type: cell membranes
[36] = test system: Cell membrane; assay: Induction of cell membrane disruption in Staphylococcus aureus assessed as PI uptake at 2 times MIC incubated for 2 hrs by PI staining based flow cytometry analysis (reference value: 15.9%); type: cell membranes
[37] = test system: Cell membrane; assay: Induction of cell membrane disruption in Staphylococcus aureus assessed as PI uptake at 4 times MIC incubated for 2 hrs by PI staining based flow cytometry analysis (reference value: 15.9%); type: cell membranes
[38] = test system: Pseudomonas aeruginosa; assay: Drug resistance against Pseudomonas aeruginosa assessed as fold increase in MIC after 40 consecutive days of passages by sequential passaging method; type: functional; details: time 18.0 hrs
[39] = test system: Staphylococcus aureus; assay: Antibacterial activity against methicillin resistant Staphylococcus aureus incubated for 18 hrs by broth microdilution method; type: functional
[40] = test system: Staphylococcus aureus; assay: Antibacterial activity against methicillin resistant Staphylococcus aureus 113 incubated for 18 hrs by broth microdilution method; type: functional
[41] = test system: Staphylococcus aureus; assay: Antibacterial activity against Staphylococcus aureus S794 incubated for 18 hrs by broth microdilution method; type: functional
[42] = test system: Staphylococcus aureus; assay: Antibacterial activity against Staphylococcus aureus S125 incubated for 18 hrs by broth microdilution method; type: functional
[43] = test system: Staphylococcus aureus; assay: Antibacterial activity against methicillin resistant Staphylococcus aureus 75 incubated for 18 hrs by broth microdilution method; type: functional
[44] = test system: Staphylococcus aureus; assay: Antibacterial activity against Staphylococcus aureus incubated for 18 hrs by broth microdilution method; type: functional
[45] = test system: Staphylococcus aureus; assay: Antibacterial activity against kanamycin resistant Staphylococcus aureus incubated for 18 hrs by broth microdilution method; type: functional
[46] = test system: Staphylococcus aureus; assay: Antibacterial activity against rifampicin resistant Staphylococcus aureus incubated for 18 hrs by broth microdilution method; type: functional
[47] = test system: Escherichia coli; assay: Antibacterial activity against Escherichia coli incubated for 18 hrs by broth microdilution method; type: functional
[48] = test system: Escherichia coli; assay: Antibacterial activity against kanamycin resistant Escherichia coli incubated for 18 hrs by broth microdilution method; type: functional
[49] = test system: Escherichia coli; assay: Antibacterial activity against rifampicin resistant Escherichia coli incubated for 18 hrs by broth microdilution method; type: functional

POLYMYXIN B [listing 1 of 2 here]
MHC [1]: > 512 µM | LD50 [2]: 25.68 mg/kg | Activity [3]: 0% | Activity [4]: 60% | Activity [5]: 80% | Activity [6]: Toxic | Activity [7]: Toxic | Activity [8]: Toxic | Activity [9]: Toxic | Activity [10]: Toxic | Activity [11]: Toxic | Activity [12]: Toxic

POLYMYXIN B [listing 2 of 2 here]
MIC [13]: 8 µM | MIC [14]: 4 µM | MIC [15]: 8 µM | MIC [16]: 2 µM | MIC [17]: 2 µM | MIC [18]: 1 µM | MBC [19]: 32 µM | MBC [20]: 8 µM | MBC [21]: 16 µM | MBC [22]: 2 µM | MBC [23]: 2 µM | MBC [24]: 1 µM | Activity [25]: inactive | Activity [26]: Active | Activity [27]: Active | Activity [28]: Active | Activity [29]: Active | Activity [30]: Active | Activity [31]: Active | Activity [32]: inactive | Activity [33]: inactive | Activity [34]: 42.6% | Activity [35]: 45.4% | Activity [36]: 47.5% | Activity [37]: 38% | fold change (FC) [38]: 8 | MIC [39]: 16 µM | MIC [40]: 8 µM | MIC [41]: 8 µM | MIC [42]: 8 µM | MIC [43]: 16 µM | MIC [44]: 8 µM | MIC [45]: 8 µM | MIC [46]: 2 µM | MIC [47]: 2 µM | MIC [48]: 16 µM | MIC [49]: 2 µM
